Laboratory results as given in PubChem BioAssay (NCI).
Several values for one entry are separate records, joined by “and”; a condition that tells them apart may be missing. Identical values can stand only once.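 How tested: cells in 96-well plates exposed to compound for 48 hours at five concentrations. Here, GI50 denotes the concentration required for 50% inhibition of growth. TGI is the concentration that stops growth completely.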

Columns and labels:
Assay in all cases: inhibition of tumour cell growth, NCI panel, 48 h
[1] = system: IGROV1 ovarian
[2] = system: UACC-257 melanoma
[3] = system: NCI-H460 lung
[4] = system: NCI-H522 lung
[5] = system: 786-0 renal
[6] = system: U251 CNS
[7] = system: SNB-19 CNS
[8] = system: NCI-H226 lung
[9] = system: CCRF-CEM leukemia
[10] = system: DU-145 prostate

Structure (SMILES) | TGI [1] | TGI [2] | TGI [3] | TGI [4] | TGI [5] | TGI [6] | TGI [7] | TGI [8] | TGI [9] | GI50 [1] | GI50 [2] | GI50 [3] | GI50 [4] | GI50 [9] | GI50 [5] | GI50 [7] | GI50 [10] | TGI [10] | GI50 [8] | GI50 [6]
CCCc1nc(NC#N)nc(C(=O)Nc2ccccc2)c1CC | > 100 µM | > 100 µM | > 100 µM | > 100 µM | > 100 µM | > 100 µM | > 100 µM | > 100 µM | – | – | – | – | – | – | – | – | – | – | – | –
CN(C)CC1CCCC/C1=N/OC(=O)c1ccc(Cl)cc1 (centres undefined) | > 100 µM | > 100 µM | > 100 µM | > 100 µM | > 100 µM | > 100 µM | – | > 100 µM | > 100 µM | – | – | – | – | – | – | – | – | – | – | –
COC(=O)C(Cc1nc2ccc(Cl)cc2[nH]c1=O)/C(=N\N)C(=O)Nc1cc(C)c(Cl)cc1S(=O)(=O)O (centres undefined) | > 100 µM | > 100 µM | > 100 µM | > 100 µM | > 100 µM | > 100 µM | > 100 µM | > 100 µM | > 100 µM | – | – | – | – | – | – | – | – | – | – | –
CC12CP(=O)(c3ccccc3)CC1C2(Cl)Cl (centres undefined) | > 100 µM | – | > 100 µM | > 100 µM | > 100 µM | > 100 µM | > 100 µM | – | > 100 µM | – | – | – | – | – | – | – | – | – | – | –
CN1CCOC(c2ccccc2)O1 (centres undefined) | > 100 µM | > 100 µM | > 100 µM | > 100 µM | > 100 µM | > 100 µM | > 100 µM | > 100 µM | > 100 µM | – | – | – | – | – | – | – | – | – | – | –
N#Cc1c2ccccc2cn1-c1ccc(F)cc1 | > 100 µM | 83.8 µM | > 100 µM | 43.2 µM | > 100 µM | > 100 µM | > 100 µM | 55.6 µM | > 100 µM | – | – | – | – | – | – | – | – | – | – | –
Cc1cc(N(CCC#N)CCC#N)ccc1N=Nc1ccc(C(=O)O)cc1 | > 100 µM | > 100 µM | – | > 100 µM | > 100 µM | > 100 µM | – | > 100 µM | – | – | – | – | – | – | – | – | – | – | – | –
Cc1ccccc1N1C(=O)C2C=CC(n3[nH]c(=O)n(Cc4ccccc4)c3=O)CC2C1=O (centres undefined) | > 100 µM | > 100 µM | > 100 µM | > 100 µM | > 100 µM | > 100 µM | > 100 µM | > 100 µM | > 100 µM | – | – | – | – | – | – | – | – | – | – | –
CCCNC(=S)NNC(=O)CSc1nc(-c2ccccc2)c(-c2ccccc2)[nH]1 | > 100 µM | > 100 µM | > 100 µM | 78.1 µM | > 100 µM | > 100 µM | > 100 µM | > 100 µM | > 100 µM | – | – | – | – | – | – | – | – | – | – | –
Nc1nc(/C=C\c2ccc([N+](=O)[O-])s2)nc(N2CCCC2)n1 | 17.2 µM | 15.6 µM | 16.1 µM | 8.67 µM | 23.6 µM | – | 21.6 µM | 21.7 µM | 5.23 µM | 4.72 µM | 4.39 µM | 3.68 µM | 2.55 µM | 1.57 µM | 10.8 µM | 3.01 µM | 2.47 µM | 16.4 µM | 3.32 µM | –
O=C(CCc1n[nH]c(=S)o1)Nc1ccccc1C(F)(F)F | > 100 µM | > 100 µM | > 100 µM | > 100 µM | > 100 µM | > 100 µM | > 100 µM | > 100 µM | > 100 µM | – | – | – | – | – | – | – | – | – | – | –
C1=CC(N(c2ccccc2)C2C=CCCC2)CCC1 (centres undefined) | > 100 µM | – | > 100 µM | > 100 µM | > 100 µM | > 100 µM | – | – | > 100 µM | – | – | – | – | – | – | – | – | – | – | –
O=C1/C(=C/c2cccc(Cl)c2Cl)N=C(c2ccccc2)N1C1CC1 | > 50 µM | 26.2 µM | > 50 µM | > 50 µM | 14.4 µM | 34.7 µM | 33.2 µM | 23.2 µM | – | 19.7 µM | 12.2 µM | 15.3 µM | 19.8 µM | – | 7.29 µM | 12.7 µM | 12.1 µM | 29.4 µM | 9.54 µM | 12.6 µM
CCOc1ccc(NC(=O)CC#N)cc1 | > 100 µM | > 100 µM | > 100 µM | > 100 µM | > 100 µM | > 100 µM | > 100 µM | > 100 µM | > 100 µM | – | – | – | – | – | – | – | – | – | – | –
CCN1CCC(O)(c2ccc(OC)cc2)C(C(=O)c2ccc(OC)cc2)C1 (centres undefined) | > 100 µM | 48 µM | 59.5 µM | 4.06 µM | 26.8 µM | 30.5 µM | 69.1 µM | > 100 µM | – | – | – | – | – | – | – | – | – | – | – | –
NC(=O)C12CC3CC(CC(F)(C3)C1)C2 | > 100 µM | > 100 µM | > 100 µM | > 100 µM | > 100 µM | > 100 µM | – | – | > 100 µM | – | – | – | – | – | – | – | – | – | – | –
S=c1sc2c(Cl)nc(Cl)nc2n1-c1ccccc1 | 33.6 µM | > 100 µM | > 100 µM | 23.8 µM | > 100 µM | 98 µM | > 100 µM | > 100 µM | 75.8 µM | – | – | – | – | – | – | – | – | – | – | –
Cc1ccc(/C=C/C(=O)c2sc(-c3nc(C)c(C(=O)/C=C/c4ccc(C)cc4)s3)nc2C)cc1 | > 100 µM | > 100 µM | > 100 µM | > 100 µM | > 100 µM | > 100 µM | – | > 100 µM | > 100 µM | – | – | – | – | – | – | – | – | – | – | –
COc1ccc(C(=O)/C=C/c2cc(-c3cc(OC)c(OC)c(OC)c3)n[nH]2)cc1OC | 3.41 µM | 2.83 µM | 3.33 µM | 0.39 µM | 2.86 µM | 2.48 µM | 3.01 µM | – | 3.93 µM | 1.8 µM | 1.49 µM | 1.41 µM | 0.184 µM | 0.626 µM | 1.4 µM | 1.42 µM | 0.55 µM | 1.84 µM | – | 1.23 µM
CCOc1ccccc1NC(=O)C(=O)CC(=O)c1sc(Nc2nnc(-c3ccc(Cl)c(Cl)c3)o2)nc1C | > 100 µM | > 100 µM | > 100 µM | – | > 100 µM | 41.4 µM | > 100 µM | > 100 µM | > 100 µM | – | – | – | – | – | – | – | – | – | – | –
COc1cccc(C2=NC(C(C)C)CO2)c1 (centres undefined) | > 100 µM | > 100 µM | > 100 µM | > 100 µM | > 100 µM | – | > 100 µM | > 100 µM | > 100 µM | – | – | – | – | – | – | – | – | – | – | –
COc1cc(NCc2ccc3nc(N)nc(N)c3c2C)cc(OC)c1OC (tested in a mixture with another compound) | 68.6 µM | 48.7 µM | 34.8 µM | – | – | 88.5 µM and 48.7 µM | 113 µM | 52.8 µM | 86 µM | – | 0.00993 µM | 0.000169 µM | – | – | 0.0145 µM and 0.025 µM | – | 0.172 µM and 0.025 µM | 38.2 µM | 0.0892 µM | 0.00227 µM and 0.016 µM
